Where two headings read alike, the source gives them in different places.
Target: JAK3 enzyme (Homo sapiens (Human), UniProt P52333)
Assay: JAK Caliper Enzyme Assay at 4 μM or 1 mM ATP
Type: biochemical
[1] = read-out: JAK3 (4 μM ATP) IC50, 4 μM ATP
[2] = read-out: JAK3 (1 mM ATP) IC50, 1 mM ATP

Sequence of JAK3 enzyme (P52333 whole entry, species assumed): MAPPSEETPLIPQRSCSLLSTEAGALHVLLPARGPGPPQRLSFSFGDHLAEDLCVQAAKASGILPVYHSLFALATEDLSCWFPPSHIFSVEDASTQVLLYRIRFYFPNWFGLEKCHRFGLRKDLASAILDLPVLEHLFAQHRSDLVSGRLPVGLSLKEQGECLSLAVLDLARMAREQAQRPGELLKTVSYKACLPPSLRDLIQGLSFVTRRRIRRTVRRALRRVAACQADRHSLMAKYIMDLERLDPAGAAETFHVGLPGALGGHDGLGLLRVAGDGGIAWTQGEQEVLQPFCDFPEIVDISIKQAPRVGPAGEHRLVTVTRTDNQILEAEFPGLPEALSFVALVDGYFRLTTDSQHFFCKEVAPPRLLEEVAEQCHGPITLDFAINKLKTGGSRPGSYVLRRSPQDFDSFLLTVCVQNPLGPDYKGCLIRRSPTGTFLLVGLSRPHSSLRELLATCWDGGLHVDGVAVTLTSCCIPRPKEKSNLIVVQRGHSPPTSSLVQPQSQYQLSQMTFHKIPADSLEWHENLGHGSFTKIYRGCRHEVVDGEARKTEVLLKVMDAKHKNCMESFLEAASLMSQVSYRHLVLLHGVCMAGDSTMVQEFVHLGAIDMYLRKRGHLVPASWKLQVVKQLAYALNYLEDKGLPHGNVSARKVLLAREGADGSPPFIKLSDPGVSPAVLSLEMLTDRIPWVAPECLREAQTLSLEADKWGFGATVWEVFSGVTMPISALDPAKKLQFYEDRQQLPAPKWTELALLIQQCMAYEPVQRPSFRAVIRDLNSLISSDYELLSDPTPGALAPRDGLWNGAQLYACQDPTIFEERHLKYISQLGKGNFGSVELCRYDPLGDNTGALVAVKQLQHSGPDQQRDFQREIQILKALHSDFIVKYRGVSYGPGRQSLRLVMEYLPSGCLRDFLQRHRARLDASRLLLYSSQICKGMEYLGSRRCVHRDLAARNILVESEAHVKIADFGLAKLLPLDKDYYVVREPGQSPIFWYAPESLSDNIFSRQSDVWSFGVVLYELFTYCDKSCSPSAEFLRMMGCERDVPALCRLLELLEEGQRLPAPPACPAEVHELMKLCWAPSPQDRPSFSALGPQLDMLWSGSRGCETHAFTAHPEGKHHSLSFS

Row | IC50 [1] [nM] | IC50 [2] [nM] | SMILES
1 | 0.2 | 11.1 | C=CC(=O)N1CCC(Nc2cnc3[nH]cc(C(=O)NC4CCC(F)(F)C4)c3n2)CC1 (centres unmarked) [Example 259, 2-[(1-acryloylpiperidin-4-yl)amino]-N-(3,3-difluorocyclopentyl)-5H-pyrrolo[2,3-b]pyrazine-7-carboxamide]
2 | 0.2 | 7.4 | C=CC(=O)N1CCC(Nc2cnc3[nH]cc(C(=O)NCCC#N)c3n2)CC1 [Example 261, 2-[(1-acryloylpiperidin-4-yl)amino]-N-(2-cyanoethyl)-5H-pyrrolo[2,3-b]pyrazine-7-carboxamide]
3 | 0.2 | 8.7 | C=CC(=O)N1CCC(Nc2cnc3[nH]cc(C(=O)N[C@H](CC)CC#N)c3n2)CC1 [Example 263, 2-[(1-acryloylpiperidin-4-yl)amino]-N-[(2R)-1-cyanobutan-2-yl]-5H-pyrrolo[2,3-b]pyrazine-7-carboxamide]
4 | 0.3 | 13.6 | C=CC(=O)N1CCC(Nc2cnc3[nH]cc(C(=O)NC(C)(C)C)c3n2)CC1 [Example 266, 2-[(1-acryloylpiperidin-4-yl)amino]-N-tert-butyl-5H-pyrrolo[2,3-b]pyrazine-7-carboxamide]
5 | 0.3 | 9 | C=CC(=O)N1CCC(Nc2cnc3[nH]cc(C(=O)N[C@@H](C)CCC)c3n2)CC1 [Example 267, 2-[(1-acryloylpiperidin-4-yl)amino]-N-[(2S)-pentan-2-yl]-5H-pyrrolo[2,3-b]pyrazine-7-carboxamide]
6 | 0.3 | 7.9 | C=CC(=O)N1CCC(Nc2cnc3[nH]cc(C(=O)N[C@H](C)COC)c3n2)CC1 [Example 268, 2-[(1-acryloylpiperidin-4-yl)amino]-N-[(2R)-1-methoxypropan-2-yl]-5H-pyrrolo[2,3-b]pyrazine-7-carboxamide]
7 | 0.2 | 7.3 | C=CC(=O)N1CCC(Nc2cnc3[nH]cc(C(=O)NCCCC)c3n2)CC1 [Example 269, 2-[(1-acryloylpiperidin-4-yl)amino]-N-butyl-5H-pyrrolo[2,3-b]pyrazine-7-carboxamide]
8 | < 0.1 | 8.6 | C=CC(=O)N1CCC(Nc2cnc3[nH]cc(C(=O)NCC4CCCC4)c3n2)CC1 [Example 270, 2-[(1-acryloylpiperidin-4-yl)amino]-N-(cyclopentylmethyl)-5H-pyrrolo[2,3-b]pyrazine-7-carboxamide]
9 | 0.4 | 14.9 | C=CC(=O)N1CCC(Nc2cnc3[nH]cc(C(=O)NCC(C)(C)C)c3n2)CC1 [Example 271, 2-[(1-acryloylpiperidin-4-yl)amino]-N-(2,2-dimethylpropyl)-5H-pyrrolo[2,3-b]pyrazine-7-carboxamide]
10 | 0.2 | 8.8 | C=CC(=O)N1CCC(Nc2cnc3[nH]cc(C(=O)NCC(C)C)c3n2)CC1 [Example 272, 2-[(1-acryloylpiperidin-4-yl)amino]-N-(2-methylpropyl)-5H-pyrrolo[2,3-b]pyrazine-7-carboxamide]
11 | 0.4 | 11.4 | C=CC(=O)N1CCC(Nc2cnc3[nH]cc(C(=O)NCC(F)(F)F)c3n2)CC1 [Example 273, 2-[(1-acryloylpiperidin-4-yl)amino]-N-(2,2,2-trifluoroethyl)-5H-pyrrolo[2,3-b]pyrazine-7-carboxamide]
12 | 0.2 | 8.2 | C=CC(=O)N1CCC(Nc2cnc3[nH]cc(C(=O)N[C@H](C)CCC)c3n2)CC1 [Example 274, 2-[(1-acryloylpiperidin-4-yl)amino]-N-[(2R)-pentan-2-yl]-5H-pyrrolo[2,3-b]pyrazine-7-carboxamide]
13 | 0.4 | 13.1 | C=CC(=O)N1CCC(Nc2cnc3[nH]cc(C(=O)NCCOC)c3n2)CC1 [Example 275, 2-[(1-acryloylpiperidin-4-yl)amino]-N-(2-methoxyethyl)-5H-pyrrolo[2,3-b]pyrazine-7-carboxamide]
14 | < 0.3 | 11.1 | C=CC(=O)N1CCC(Nc2cnc3[nH]cc(C(=O)NC(C)(C)CC)c3n2)CC1 [Example 276, 2-[(1-acryloylpiperidin-4-yl)amino]-N-(2-methylbutan-2-yl)-5H-pyrrolo[2,3-b]pyrazine-7-carboxamide]
15 | 0.3 | 6.6 | C=CC(=O)N1CCC(Nc2cnc3[nH]cc(C(=O)N[C@@H](C)COC)c3n2)CC1 [Example 277, 2-[(1-acryloylpiperidin-4-yl)amino]-N-[(2S)-1-methoxypropan-2-yl]-5H-pyrrolo[2,3-b]pyrazine-7-carboxamide]
16 | 0.2 | 6.3 | C=CC(=O)N1CCC(Nc2cnc3[nH]cc(C(=O)NC4CCCCC4)c3n2)CC1 [Example 278, 2-[(1-acryloylpiperidin-4-yl)amino]-N-cyclohexyl-5H-pyrrolo[2,3-b]pyrazine-7-carboxamide]
17 | 9.7 | 592 | C=CC(=O)N1CCC(Nc2cnc3[nH]cc(C(=O)N(C)C(C)C)c3n2)CC1 [Example 279, 2-[(1-acryloylpiperidin-4-yl)amino]-N-methyl-N-(propan-2-yl)-5H-pyrrolo[2,3-b]pyrazine-7-carboxamide]
18 | 0.2 | 4 | C=CC(=O)N1CCC(Nc2cnc3[nH]cc(C(=O)NC4CCC4)c3n2)CC1 [Example 280, 2-[(1-acryloylpiperidin-4-yl)amino]-N-cyclobutyl-5H-pyrrolo[2,3-b]pyrazine-7-carboxamide]
19 | 0.4 | 5.2 | C=CC(=O)N1CCC(Nc2cnc3[nH]cc(C(=O)NC45CC(C4)C5)c3n2)CC1 [Example 281, 2-[(1-acryloylpiperidin-4-yl)amino]-N-(bicyclo[1.1.1]pent-1-yl)-5H-pyrrolo[2,3-b]pyrazine-7-carboxamide]
20 | 0.2 | 12.9 | C=CC(=O)N1CCC(Nc2cnc3[nH]cc(C(=O)NCC(C)(F)F)c3n2)CC1 [Example 282, 2-[(1-acryloylpiperidin-4-yl)amino]-N-(2,2-difluoropropyl)-5H-pyrrolo[2,3-b]pyrazine-7-carboxamide]
21 | 0.3 | 7.6 | C=CC(=O)N1CCC(Nc2cnc3[nH]cc(C(=O)NC4CCCC4)c3n2)CC1 [Example 283, 2-[(1-acryloylpiperidin-4-yl)amino]-N-cyclopentyl-5H-pyrrolo[2,3-b]pyrazine-7-carboxamide]
22 | 1.9 | 176 | C=CC(=O)N1CCC(Nc2cnc3[nH]cc(C(=O)N4CCC4)c3n2)CC1 [Example 284, 1-(4-{[7-(azetidin-1-ylcarbonyl)-5H-pyrrolo[2,3-b]pyrazin-2-yl]amino}piperidin-1-yl)prop-2-en-1-one]
23 | 0.3 | 8.5 | C=CC(=O)N1CCC(Nc2cnc3[nH]cc(C(=O)N[C@@H](C)CC)c3n2)CC1 [Example 285, 2-[(1-acryloylpiperidin-4-yl)amino]-N-[(2S)-butan-2-yl]-5H-pyrrolo[2,3-b]pyrazine-7-carboxamide]
24 | 15.9 | 814 | C=CC(=O)N1CCC(Nc2cnc3[nH]cc(C(=O)N(C)C4CC4)c3n2)CC1 [Example 286, 2-[(1-acryloylpiperidin-4-yl)amino]-N-cyclopropyl-N-methyl-5H-pyrrolo[2,3-b]pyrazine-7-carboxamide]
25 | 4.2 | 346 | C=CC(=O)N1CCC(Nc2cnc3[nH]cc(C(=O)N4CCCC4)c3n2)CC1 [Example 287, 1-(4-{[7-(pyrrolidin-1-ylcarbonyl)-5H-pyrrolo[2,3-b]pyrazin-2-yl]amino}piperidin-1-yl)prop-2-en-1-one]

Reference: patent publication US20250134869A1, “Pyrrolo[2,3-d]pyrimidinyl, Pyrrolo[2,3-b]pyrazinyl and Pyrrolo[2,3-d]pyridinyl Acryla-mides” (Pfizer Inc, priority 2021, published 2025)
